The term IC50 denotes the concentration that inhibits the measured activity by half. For orientation: inhibition means the drop in the measured response relative to a control, in per cent.

The target of this assay is T1, recombinant human SAE enzyme (Homo sapiens, UniProt Q9UBT2).
T1 sequence (Q9UBT2 1-640): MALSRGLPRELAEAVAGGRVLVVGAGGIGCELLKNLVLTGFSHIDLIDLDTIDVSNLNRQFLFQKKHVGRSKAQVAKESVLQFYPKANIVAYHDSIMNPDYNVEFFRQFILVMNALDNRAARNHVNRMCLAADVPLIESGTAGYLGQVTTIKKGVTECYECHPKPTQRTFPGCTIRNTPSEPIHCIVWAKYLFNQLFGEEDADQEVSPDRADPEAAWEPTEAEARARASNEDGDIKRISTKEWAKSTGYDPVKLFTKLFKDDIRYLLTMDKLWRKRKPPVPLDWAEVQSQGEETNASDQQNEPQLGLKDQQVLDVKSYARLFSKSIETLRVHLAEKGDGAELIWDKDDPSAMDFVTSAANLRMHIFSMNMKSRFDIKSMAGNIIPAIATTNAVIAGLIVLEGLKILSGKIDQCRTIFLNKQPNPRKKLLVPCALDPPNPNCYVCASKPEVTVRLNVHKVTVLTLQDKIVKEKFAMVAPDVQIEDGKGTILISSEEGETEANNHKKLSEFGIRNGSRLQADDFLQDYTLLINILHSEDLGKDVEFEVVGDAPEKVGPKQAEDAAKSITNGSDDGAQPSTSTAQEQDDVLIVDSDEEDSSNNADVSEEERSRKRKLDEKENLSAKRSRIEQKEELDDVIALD
T1 sequence (Q9UBE0 1-346 partner): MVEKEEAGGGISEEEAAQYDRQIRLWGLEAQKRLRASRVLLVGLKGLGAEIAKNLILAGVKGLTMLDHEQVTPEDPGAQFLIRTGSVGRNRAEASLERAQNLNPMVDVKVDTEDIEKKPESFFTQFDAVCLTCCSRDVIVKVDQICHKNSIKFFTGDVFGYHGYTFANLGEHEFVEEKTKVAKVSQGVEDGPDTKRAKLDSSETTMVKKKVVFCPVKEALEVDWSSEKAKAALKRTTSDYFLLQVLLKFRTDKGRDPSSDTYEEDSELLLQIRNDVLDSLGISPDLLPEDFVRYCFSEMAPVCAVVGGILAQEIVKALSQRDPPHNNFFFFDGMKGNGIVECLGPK
Kind of assay: SAE HTRF Enzyme Assay. It is filed as biochemical. The settings on record: for IC50: class symbols A-C; for inhibition at 0.111 µM: compound concentration 0.111 μM, read-out: Percent Inhibition. The procedure, abridged:
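Measured as FRET after a 2 h antibody step: SAE (0.11 nM) thioester transfer of Sumo-Flag to Ubc9-GST, 0.5 μM ATP, 24° C for 105 min, quenched with 20 mM EDTA. Output is IC50 or percent inhibition at a single concentration.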

The structures appear in SMILES notation.

For `CC#CCn1ccc(C(=O)c2cncnc2N[C@@H]2C[C@H](COS(N)(=O)=O)[C@@H](O)C2)c1` [Compound I-340, {(1R,2S,4R)-4-[(5-{[1-(but-2-yn-1-yl)-1H-pyrrol-3-yl]carbonyl}pyrimidin-4-yl)amino]-2-hydroxycyclopentyl}methyl sulfamate], the IC50 is < 10 nM and the inhibition at 0.111 µM worked out at 94%.

On to `Cc1cc(C(=O)c2cncnc2N[C@@H]2C[C@H](COS(N)(=O)=O)[C@@H](O)[C@@H]2F)nn1Cc1cccc(I)c1` [Compound I-294, {(1R,2R,3R,4R)-3-fluoro-2-hydroxy-4-[(5-{[1-(3-iodobenzyl)-5-methyl-1H-pyrazol-3-yl]carbonyl}pyrimidin-4-yl)amino]cyclopentyl}methyl sulfamate], for which the IC50 is < 10 nM and the inhibition at 0.111 µM was found to be 100%.

On to `CC(C)=C(C)n1ccc(C(=O)c2cncnc2N[C@@H]2C[C@H](COS(N)(=O)=O)[C@@H](O)C2)n1` [Compound I-344, {(1R,2S,4R)-2-hydroxy-4-[(5-{[1-(3-methylbut-2-en-2-yl)-1H-pyrazol-3-yl]carbonyl}pyrimidin-4-yl)amino]cyclopentyl}methyl sulfamate], for which the IC50 lay within 10 to 100 nM and the inhibition at 0.111 µM was 77%.

Consider `CC#CCn1ccc(C(=O)c2cncnc2N[C@@H]2C[C@H](COS(N)(=O)=O)[C@@H](O)C2)n1` [Compound I-228, {(1R,2S,4R)-4-[(5-{[1-(but-2-yn-1-yl)-1H-pyrazol-3-yl]carbonyl}pyrimidin-4-yl)amino]-2-hydroxycyclopentyl}methyl sulfamate], for which the IC50 is 10 to 100 nM and the inhibition at 0.111 µM amounted to 72%.

As for `NS(=O)(=O)OC[C@H]1C[C@@H](Nc2ncncc2C(=O)c2ccn(Cc3ccc(F)c(Br)c3)c2)C[C@@H]1O` [Compound I-279, {(1R,2S,4R)-4-[(5-{[1-(3-bromo-4-fluorobenzyl)-1H-pyrrol-3-yl]carbonyl}pyrimidin-4-yl)amino]-2-hydroxycyclopentyl}methyl sulfamate], the IC50 is < 10 nM and the inhibition at 0.111 µM was 98%.

As for `NS(=O)(=O)OC[C@H]1C[C@@H](Nc2ncncc2C(=O)c2ccn(Cc3cccc(C(F)(F)F)c3)n2)[C@H](O)[C@@H]1O` [Compound I-119, [(1R,2R,3S,4R)-2,3-dihydroxy-4-{[5-({1-[3-(trifluoromethyl)benzyl]-1H-pyrazol-3-yl}carbonyl)pyrimidin-4-yl]amino}cyclopentyl]methyl sulfamate], the IC50 is < 10 nM and the inhibition at 0.111 µM worked out at 98%.

For `NS(=O)(=O)OC[C@H]1C[C@@H](Nc2ncncc2C(=O)c2ccn(Cc3cc(C(F)(F)F)co3)c2)[C@@H](F)[C@@H]1O` [Compound I-114, [(1R,2R,3R,4R)-3-fluoro-2-hydroxy-4-({5-[(1-{[4-(trifluoromethyl)-2-furyl]methyl}-1H-pyrrol-3-yl)carbonyl]pyrimidin-4-yl}amino)cyclopentyl]methyl sulfamate], the IC50 was < 10 nM and the inhibition at 0.111 µM was 98%.

For the compound `NS(=O)(=O)OC[C@H]1C[C@@H](Nc2ncncc2C(=O)c2ccn(Cc3ccc(OC(F)(F)F)cc3)n2)[C@H](O)[C@@H]1O` [Compound I-265, [(1R,2R,3S,4R)-2,3-dihydroxy-4-{[5-({1-[4-(trifluoromethoxy)benzyl]-1H-pyrazol-3-yl}carbonyl)pyrimidin-4-yl]amino}cyclopentyl]methyl sulfamate], the IC50 is < 10 nM and the inhibition at 0.111 µM amounted to 95%.

With `NS(=O)(=O)OC[C@H]1C[C@@H](Nc2ncncc2C(=O)c2ccn(Cc3cccc(F)c3)n2)C[C@@H]1O` [Compound I-165, {(1R,2S,4R)-4-[(5-{[1-(3-fluorobenzyl)-1H-pyrazol-3-yl]carbony1}pyrimidin-4-yl)amino]-2-hydroxycyclopentyl}methyl sulfamate], the IC50 was < 10 nM and the inhibition at 0.111 µM came out at 98%.

Source of the values: patent US9695154B2, “Heteroaryl inhibitors of sumo activating enzyme” (MILLENNIUM PHARMACEUTICALS, INC., priority 2013, dated 2017).
